According to US10626125B2, “1,1,1-trifluoro-3-hydroxypropan-2-yl carbamate derivatives as MAGL inhibitors” (PFIZER INC., priority 2017, dated 2020):
Like-named read-outs stand apart in the source and are kept apart here.

What was measured:
[1] = molecular target: T1, human recombinant Monoacylglycerol Lipase (Homo sapiens, UniProt Q99685); test: MAGL enzymatic assay (IC50; 7-HCA substrate added at T=0 min or T=30 min); assay type: biochemical; conditions: geometric mean of 2-5 determinations unless otherwise indicated
T1 sequence (Q99685 1-303): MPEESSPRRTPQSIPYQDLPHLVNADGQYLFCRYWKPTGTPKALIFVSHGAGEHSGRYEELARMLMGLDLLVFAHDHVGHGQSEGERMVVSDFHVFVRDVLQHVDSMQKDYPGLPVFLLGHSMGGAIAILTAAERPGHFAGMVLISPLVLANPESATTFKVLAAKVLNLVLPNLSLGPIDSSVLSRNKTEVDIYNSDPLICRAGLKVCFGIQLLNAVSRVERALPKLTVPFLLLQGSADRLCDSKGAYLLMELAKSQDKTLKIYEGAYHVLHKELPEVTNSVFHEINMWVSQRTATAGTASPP

[2] = molecular target: T1, human recombinant Monoacylglycerol Lipase; test: MAGL inactivation (kinact/KI from enzyme progress curves, T=0 min protocol); conditions: from plot of Kobs vs. compound concentration, geometric mean of 2-5 determinations (b: ≥6)
[3] = MAGL (T = 30 min) IC50, substrate 7-HCA added after 30 minute incubation (T=30 min)
[4] = substrate 7-HCA added immediately (T=0 min), read-out: MAGL (T = 0 min) IC50

| SMILES | IC50 [1, 3] | IC50 [1, 4] | MAGL kinact/KI [2] |
| --- | --- | --- | --- |
| N#Cc1ccc(C2CC3(CCN(C(=O)O[C@H](CO)C(F)(F)F)CC3)C2)nc1 [Example 84, (2R)-1,1,1-trifluoro-3-hydroxypropan-2-yl 2-(5-cyanopyridin-2-yl)-7-azaspiro[3.5]nonane-7-carboxylate] | 15 nM | 143 nM | 4000 1/s per M |
| O=C(O[C@H](CO)C(F)(F)F)N1CCC2(CC1)CC(n1ncc3ccccc31)CO2 (single isomer, unassigned) [Example 62] | 1 nM | 10 nM | 18100 1/s per M |
| Cc1cnn(C2COC3(CCN(C(=O)O[C@H](CO)C(F)(F)F)CC3)C2)c1 (single isomer, unassigned) [Example 24] | 12 nM | 115 nM | 7840 1/s per M |

The remaining molecules from weak to strong by IC50 [1, 3], led by results:

| IC50 [1, 3] | IC50 [1, 4] | MAGL kinact/KI [2] | SMILES |
| --- | --- | --- | --- |
| 4 nM | 48 nM | 7920 1/s per M | O=C(O[C@H](CO)C(F)(F)F)N1CCC2(CC1)CC(c1ccc(F)cc1)CO2 (single isomer, unassigned) [Example 34] |
| 1 nM | 11 nM | 34100 1/s per M | O=C(O[C@H](CO)C(F)(F)F)N1CCC2(CC1)CC(Oc1ccccc1)C2 [Example 63, (2R)-1,1,1-trifluoro-3-hydroxypropan-2-yl 2-phenoxy-7-azaspiro[3.5]nonane-7-carboxylate] |
| 1 nM | 4 nM | 167000 1/s per M | N#Cc1cccc(C2CC3(CCN(C(=O)O[C@H](CO)C(F)(F)F)CC3)C2)c1 [Example 46, (2R)-1,1,1-trifluoro-3-hydroxypropan-2-yl 2-(3-cyanophenyl)-7-azaspiro[3.5]nonane-7-carboxylate] |
